Assay results published in patent publication US20120115951A1, “PROTECTIVE ACTION OF SEROFENDIC ACID ON CARDIAC MUSCLE” (Eisai R & D Managment Co., Ltd, priority 2005, published 2012).

Experiments:
[1] = Blood pressure measurement after femoral vein administration; format: in vivo, Sprague-Dawley male rats; conditions: 10 mg/kg into femoral vein; monitored until 10 minutes after administration; anesthetized rats
Protocol: The distal end of the common carotid artery of 8-week-old Sprague-Dawley male rats (about 250 g) was ligated under the effect of pentobarbital anesthetic. Then, to the proximate end thereof, a polyethylene tube filled with heparin-containing saline and connected to a pressure converter was inserted. Changes in blood pressure were recorded by a pen recorder.
A 24-gauge injection needle connected to a syringe via the tube was inserted into the femoral vein, and the liquid drug was injected over 1 to 2 minutes. The blood pressure was monitored from before the liquid drug administration until 10 minutes after the administration.
Serofendic acid was dissolved in Meylon (7% NaHCO3) at a concentration of 4 mg/mL. The blood pressure of each individual rat was measured after only the solvent was administered. Then, 10 mg/kg of serofendic acid was administered. The average of the blood pressure for 3 minutes before the administration of each of SFA and Meylon was set as 100%.

[2] = system: neonatal rat cardiac myocytes; assay: FACS analysis of ΔΨm in TMRE-loaded cells; format: cell-based; conditions: for protection against ΔΨm loss in the presence of mitoKATP channel blocker 5HD: 100 μM drug plus 500 μM 5HD
Protocol: (§1) Cardiac ventricular myocytes were prepared from 1-2-day-old Wister rats and cultured as previously described (Akao M, et al., Circ Res. 2001; 88:1267-75). In brief, the hearts were removed, and the ventricles were minced into small fragments, which were digested by trypsin dissociation. The dissociated cells were preplated for 1 hour to enrich the culture with myocytes. The non-adherent myocytes were then plated in plating medium consisting of Dulbecco's Modified Eagle Medium (DMEM) (Nacalai tesque; Kyoto, Japan) supplemented with 5% fetal calf serum, penicillin (100 U/ml), streptomycin ([…]), and 2 μg/ml vitamin B12. The final myocyte cultures contained >90% cardiac myocytes. The cells were maintained at 37° C. in the presence of 5% CO2 in a humidified incubator. Bromodeoxyuridine (0.1 mM) was incubated in the medium for the first 3 days after plating to inhibit fibroblast growth. Cultures were then placed in serum-free DMEM containing vitamin B12 and transferrin, 24 hours prior to the drug treatment.
(§2) To monitor ΔΨm, cells were loaded with 100 nM tetramethylrhodamine ethyl ester (TMRE) (Molecular Probes) at 37° C. for 20 minutes. To monitor [Ca^2+]m, the cells were loaded with 2 μM […] (Molecular Probes) at 37° C. for 30 minutes. We assayed intracellular ROS production using chloromethyl-2,7-dichlorodihydrofluorescein diacetate (DCF) (Molecular Probes). Cells were loaded with 4 μM DCF at 37° C. for 30 minutes, and formation of the oxidized derivative was monitored by the increase of green fluorescence.
For FACS analysis of ΔΨm, TMRE-loaded cells were harvested by trypsinization at the end of the experimental protocols, and analyzed using FACSAria (BD Biosciences; San Jose, Calif.) (20,000 cells/sample). The fluorescence intensity of TMRE was monitored at 582 nm (FL-2). The FACS data were analyzed using analysis software (WinMDI; http://facs/scripps.edu/software.html).
C=Control cells; H=Cells exposed to 100 μM H2O2 for 1 hour; SFA=Cells pretreated with 100 μM SFA followed by 100 μM H2O2 for 1 hour. In all histograms, the position of the major population of cells in the control group is indicated by a vertical dashed line. […] Cells were pretreated with various concentrations of SFA followed by 100 μM H2O2 for 1 hour. C=Control cells. SFA preserved ΔΨm in a concentration-dependent manner
FIG. 2c and FIG. 2d show the summarized data of the percentage of cells that maintain high (>200) TMRE fluorescence. The cells were pre-treated with various drugs shown in the figure and then treated with 100 μM H2O2 for 1 hour. DZ=100 μM diazoxide; 5HD=500 μM 5-hydroxydecanoate.

[3] = electron spin resonance analysis; cited from earlier work
[4] = system: neonatal rat cardiac myocytes; assay: Time-lapse confocal analysis of [Ca2+]m (rhod-2 fluorescence); format: cell-based; conditions: 100 μM SFA pretreatment; H2O2 for 1 hour (50 μM, 100 μM elsewhere in the source)
Protocol: as §2
(§3) Cells plated on 35 mm glass-bottom dishes were maintained at 37° C. in the presence of 5% CO2 using a heater platform installed on a microscope stage, and were placed in serum-free DMEM. After the desired temperature was reached, time-lapse confocal microscopy was started with 2 minute intervals, using a 20× objective lens. […]
(§4) Twenty-five cells were randomly selected in each scan, and the red or green fluorescence intensity was sequentially monitored.
Calcium overload in mitochondrial matrix is one of the critical triggers of cell death and is also an important inducer of MPTP opening. To monitor the [Ca^2+]m level, the present inventors performed time-lapse confocal microscopy using the [Ca^2+]m sensitive dye, rhod-2, and observed the change of fluorescence due to 50 μM H2O2 stimulation in each group (FIG. 5). […]

[5] = system: cultured cortical and striatal neurons; conditions: in vitro; cited from earlier work
[6] = system: neonatal rat cardiac myocytes; assay: Time-lapse confocal analysis of intracellular ROS production (DCF fluorescence); format: cell-based; conditions: 100 μM SFA pretreatment; H2O2 for 30 min (50 μM, 100 μM elsewhere in the source)
Protocol: as §2
as §3, with “lens. Images were taken with laser scanning confocal microscopy (Zeiss, LSM510).” for “lens.”
as §4
ROS is one of the most important inducers of MPTP opening. To investigate whether the suppression of ROS production is associated with the protective effects of SFA, the present inventors assessed the change of DCF fluorescence by 50 μM H2O2 stimulation in each group using time-lapse confocal microscopy (FIG. 4). […]

[7] = system: neonatal rat cardiac myocytes; assay: MTS assay of cell viability after H2O2; format: cell-based; conditions: 100 μM SFA; H2O2 treatment 3 hours; P<0.01 vs H group
Protocol: as §1, with “Bromodeoxyuridine (0.1 mM) was incubated in the medium for the first 3 days after plating to inhibit fibroblast growth. Cultures were then placed in serum-free DMEM containing vitamin B12 and transferrin, 24 hours prior to the drug treatment.” left out
Cell viability was quantified based on metabolic activity using the MTS assay (Promega; Madison, Wis.). […] The quantity of formazan product is directly proportional to the number of living cells in culture (Zhang H M, et al., Circ Res. 2002; 90:1251-8).
The cultures were incubated in serum-free medium containing 20 μl/well of the MTS tetrazolium compound for 3 hours at 37° C. The absorbance of formazan products was photometrically measured at 490 nm with a microplate reader, ARVOsx (PerkinElmer; Shelton, Wash.). Cell viability was expressed as the percentage of the absorbance measured in the control group. […]

[8] = system: neonatal rat cardiac myocytes; assay: Time-lapse confocal analysis of ΔΨm loss (TMRE fluorescence); format: cell-based
Protocol: as §2
Cells plated on 35 mm glass-bottom dishes were maintained at 37° C. in the presence of 5% CO2 using a heater platform installed on a microscope stage, and were placed in serum-free DMEM. After the desired temperature was reached, time-lapse confocal microscopy was started with 2 minute intervals, using a 20× objective lens. Images were taken with laser scanning confocal microscopy (Zeiss, LSM510). TMRE and rhod-2 AM were excited at 543 nm using a helium/neon laser. DCF was excited at 488 nm using an argon laser.
as §4
To further confirm the protective effect of SFA in preventing the loss of ΔΨm, the present inventors examined the time-dependent changes of ΔΨm on a single-cell basis (FIG. 3). Time-lapse confocal analysis of cardiac myocytes loaded with TMRE was performed at 2-minute intervals. Time-lapse scanning began immediately after the application of 50 μM H2O2.
C=Control cells; H=Cells exposed to 100 μM H2O2 for 1 hour; SFA=Cells pretreated with 100 μM SFA followed by 100 μM H2O2 for 1 hour. Scale bars at 0 min frames: 20 μm.

[9] = system: neonatal rat cardiac myocytes; assay: TUNEL staining and DAPI staining of neonatal rat cardiac myocytes exposed to H2O2; format: cell-based
Protocol: as §1, with “Cultures were then placed in serum-free DMEM containing vitamin B12 and transferrin, 24 hours prior to the drug treatment.” left out
TUNEL staining was performed according to the manufacturer's protocol (Roche; Indianapolis, Ind.). Fluorescein labels incorporated in nucleotide polymers were detected with a fluorescence microscope (Axioskop 2 plus, Zeiss; Thornwood, N.Y.).
Cells were stained with the DNA binding dye DAPI (5 μM, Molecular Probes; Eugene, Oreg.). The nuclear morphology of cells were visualized and photographed with the fluorescence microscope. […]

[10] = system: isolated cardiac myocytes; conditions: previously reported (Akao et al. 2001); cited from earlier work
[11] = 25 randomly selected cells, 100 μM SFA, H2O2

Structure (SMILES)	change in average blood pressure [1]	concentration at which the ΔΨm-preserving effect reached its maximum level ([2]; 100 μM H2O2 for 1 hour) [µM]	protective effect in preventing the loss of ΔΨm, versus diazoxide ([2]; 100 μM SFA vs 100 μM diazoxide, 100 μM H2O2 for 1 hour)	effect of co-application with diazoxide on ΔΨm preservation ([2]; 100 μM diazoxide and 100 μM SFA vs SFA alone, 100 μM H2O2)	protection against ΔΨm loss in the presence of mitoKATP channel blocker 5HD ([2]; 100 μM H2O2)	effect on control level of ΔΨm ([2]; SFA alone in the absence of H2O2)	loss of ΔΨm (percentage of cells that maintain high (>200) TMRE fluorescence) ([2]; various concentrations of SFA followed by 100 μM H2O2 for 1 hour)	hydroxyl radical-scavenging activity [3]	rhod-2 fluorescence ([Ca2+]m overload) [4]	protection of neurons against glutamate, nitric oxide, and H2O2 cytotoxicity [5]	DCF fluorescence (intracellular ROS) [6]	cellular viability evaluated by MTS assay [7]	TMRE fluorescence over 60 minutes (time-lapse) ([8]; 100 μM SFA pretreatment, H2O2 (50 μM, 100 μM elsewhere in the source))	number of cells undergoing the dissipation of ΔΨm [8, 11]	onset of ΔΨm loss [8, 11]	nuclear morphology (DAPI staining) ([9]; 100 μM SFA, 100 μM H2O2 for 16 hours)	TUNEL-positive nuclei ([9]; pretreated with 100 μM SFA followed by 100 μM H2O2 for 16 hours, compared with H2O2 group)	effect of 5HD alone on the loss of ΔΨm elicited by H2O2 ([2]; 500 μM 5HD, 100 μM H2O2)	loss of ΔΨm induced by oxidative stress [10]
C[S+]([O-])CC1C2CCC3(CCC4C(C)(C(=O)O)CCCC4(C)C3C2)C1O (single isomer, unassigned; ent-15) [SFA, ent-15β-hydroxy-17-methylsulfinyl-16α-atisan-19-oic acid]	no significant change in average blood pressure was observed	100	comparable to 100 μM diazoxide	did not exhibit an additive effect	completely blocked	did not affect the control level of ΔΨm	prevented the loss of ΔΨm in a concentration-dependent manner	exhibits hydroxyl radical-scavenging activity	partly attenuated the [Ca^2+]m overload	exhibited the ability to protect cultured cortical and striatal neurons	suppressed the increase in DCF fluorescence	partly but significantly protected against H2O2-induced cytotoxicity	remarkably preserved	decreased the number of cells undergoing the dissipation of ΔΨm	delayed the onset of ΔΨm loss	significant protective effect in the preservation of nuclear morphology	obviously fewer TUNEL-positive nuclei		
CCCCCC(O)CCCC(=O)O (centres unmarked) [5HD, 5-hydroxydecanoate, reference compound]																		did not aggravate the loss of ΔΨn	
CC1=NS(=O)(=O)c2cc(Cl)ccc2N1 [diazoxide, reference compound]					completely blocked														prevents the loss of ΔΨm induced by oxidative stress in a concentration-dependent manner
